# From patent US10287268B2, “Imidazolyl kinase inhibitors and uses thereof” (Dana-Farber Cancer Institute, Inc., priority 2014, dated 2019)
# Experiments:
# Assay type in all cases: biochemical
# ABL = ABL (Homo sapiens (Human), UniProt P00519); assay: Radiometric [γ-32P]ATP protein kinase assay (Hastie et al.), % activity vs DMSO control; conditions: read-out: Activity of the protein kinase when treated with compound I-1 (% control)
# Experimental: (§1) In another set of experiments, the activities of the compounds described herein against various protein kinases were determined according to the methods reported in Hastie et al., Nature Protocols, 2006, 1, 968-971.
# (§2) This buffer consisted of 50 mM Tris-HCl, pH 7.5, 0.1 mM EGTA, 1 mg ml^−1 bovine serum albumin and 0.1% (vol/vol) 2-mercaptoethanol.
# (§3) An assay buffer of 500 mM Tris-HCl, pH 7.5, 1 mM EGTA, and 100 mM magnesium acetate was used for assay of a wide variety of protein kinases. In some experiments, other cofactors were included (e.g., calcium ions and calmodulin were included for assay of calcium-calmodulin-dependent protein kinases).
# (§4) The specific activity of the [γ-^32P] ATP solution was 1×10^5 to 1×10^6 c.p.m. per nmol depending on what was needed to produce an optimal signal/noise ratio. Stocks of nonradioactive (“cold”) ATP were dissolved in 10 mM HEPES, and the pH of the resulting stock solutions was adjusted to 7.4. To measure the concentration of ATP, a sample of such a stock solution was diluted to 20 μM, and the absorbance of the diluted sample was measured at 259 nm. The absorbance of a 20 μM stock solution of ATP at 259 nm was about 0.31. The 1-mM solution of cold ATP was “spiked” with [γ-^32P] ATP to produce a radioactivity of 1×10^5 to 1×10^6 c.p.m. per nmol.
# (§5) 1) The number of assay samples needed was determined based on, e.g., the following considerations: (i) each condition was assayed in duplicate; (ii) two controls containing peptide or protein substrate and ATP but no protein kinase were included to assess contamination by any free ATP not incorporated into substrate, alongside two controls lacking a peptide or protein substrate but containing ATP and protein kinase to correct for any incorporation of phosphate into the kinase itself (e.g., autophosphorylation); and (iii) a maximum of 40 samples were assayed manually at one time by a single person. Microcentrifuge tubes were label distinctly and were placed on ice.
# (§6) 2) Suspend a wire mesh basket in a beaker containing a magnetic stir bar and not less than 5 ml of 75 mM phosphoric acid per assay sample or a minimum volume of 100 ml. Place this on a magnetic stirrer behind a plexiglass shield.
# (§7) 3) Label 2 cm×2 cm squares of phosphocellulose paper corresponding to the samples to be pipetted into each microcentrifuge tube. Label the phosphocellulose paper using pencil, which was not affected by the solvents used to wash the papers at the end of the assay.
# (§8) 4) Dilute the protein kinase in enzyme dilution buffer and place on ice.
# (§9) 5) Pipette 5 μl of 10× concentrated assay buffer, 5 μl peptide or protein substrate (the two “no-substrate” control tubes had 5 μl water added instead of peptide or protein substrate), and 30 μl distilled water into each tube. Keep the tubes on ice.
# (§10) 6) Add 5 μl diluted protein kinase to each tube, except for the two “no-enzyme” control tubes, which had 5 μl enzyme dilution buffer added, and still keeping the tubes on ice. In some cases, premixed “cocktails” of assay components were prepared containing peptide or protein substrate, assay buffer, and distilled water to limit the number of additions to each assay tube.
# (§11) 7) Insert each tube into the water bath at intervals of 15 s to allow the assay mixture to reach 30° C. Begin the protein kinase reactions by adding 5 μl of 1 mM [γ-^32P]ATP to each tube at intervals of 15 s. Close each tube, vortex for 1 s to mix the contents and immediately replace in a rack in the water bath. Incubate for 10 min at 30° C.
# (§12) 8) At 10 min after the addition of ATP, remove each tube from the water bath at intervals of 15 s.
# (§13) 9) “Spot” […] of each reaction mixture onto the center of a 2-cm square of P81 phosphocellulose paper using forceps to handle the paper squares. Immediately immerse the paper into the 75 mM phosphoric acid contained in the wire mesh basket suspended in the beaker that is being stirred continuously with a magnetic stirrer. This was be done within 1 to 2 s, as this step terminated the reaction. […]
# BRK = BRK (Homo sapiens (Human), UniProt Q13882); assay: as above; conditions: read-out: Activity of the protein kinase when treated with compound I-1 (% control)
# Chain of BRK (Q13882 whole entry): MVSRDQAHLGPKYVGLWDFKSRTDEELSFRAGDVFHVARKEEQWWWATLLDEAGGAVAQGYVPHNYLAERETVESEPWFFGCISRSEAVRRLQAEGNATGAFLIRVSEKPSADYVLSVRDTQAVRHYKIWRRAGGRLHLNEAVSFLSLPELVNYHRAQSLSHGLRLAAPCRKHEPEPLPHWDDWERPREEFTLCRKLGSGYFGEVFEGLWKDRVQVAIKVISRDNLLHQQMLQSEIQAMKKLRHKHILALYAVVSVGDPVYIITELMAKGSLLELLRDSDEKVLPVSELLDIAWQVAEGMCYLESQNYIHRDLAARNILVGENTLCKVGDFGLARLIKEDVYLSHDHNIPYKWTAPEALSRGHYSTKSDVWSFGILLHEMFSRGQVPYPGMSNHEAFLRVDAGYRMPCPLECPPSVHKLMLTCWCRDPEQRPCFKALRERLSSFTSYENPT
# Experimental: as §1, §2, §3, §4, §5, §6, §7, §8, §9, §10, §11, §12, §13
# BTK [1] = target: T1, BTK (Homo sapiens (Human), UniProt Q06187); assay: as above; conditions: read-out: Activity of the protein kinase when treated with compound I-1 (% control)
# T1 sequence (Q06187 whole entry): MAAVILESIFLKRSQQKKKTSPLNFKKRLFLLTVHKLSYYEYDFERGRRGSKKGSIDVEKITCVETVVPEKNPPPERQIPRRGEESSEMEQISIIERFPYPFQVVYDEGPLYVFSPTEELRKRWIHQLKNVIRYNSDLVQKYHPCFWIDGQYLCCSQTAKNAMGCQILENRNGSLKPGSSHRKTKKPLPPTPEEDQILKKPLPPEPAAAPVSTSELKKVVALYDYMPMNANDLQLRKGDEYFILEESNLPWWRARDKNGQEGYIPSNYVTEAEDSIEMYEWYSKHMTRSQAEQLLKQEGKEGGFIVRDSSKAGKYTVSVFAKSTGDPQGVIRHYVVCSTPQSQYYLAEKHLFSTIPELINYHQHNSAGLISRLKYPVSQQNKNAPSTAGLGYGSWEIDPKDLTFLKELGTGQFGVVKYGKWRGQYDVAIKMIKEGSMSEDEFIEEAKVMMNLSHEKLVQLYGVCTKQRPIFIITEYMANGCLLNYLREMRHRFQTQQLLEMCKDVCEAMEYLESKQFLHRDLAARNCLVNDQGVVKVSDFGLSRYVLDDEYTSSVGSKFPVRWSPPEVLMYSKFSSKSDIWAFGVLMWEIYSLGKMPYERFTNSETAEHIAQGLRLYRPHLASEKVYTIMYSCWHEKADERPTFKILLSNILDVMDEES
# Experimental: as §1, §2, §3, §4, §5, §6, §7, §8, §9, §10, §11, §12, §13
# CSK = CSK (Homo sapiens (Human), UniProt P41240); assay: as above; conditions: read-out: Activity of the protein kinase when treated with compound I-1 (% control)
# Experimental: as §1, §2, §3, §4, §5, §6, §7, §8, §9, §10, §11, §12, §13
# DDR2 = DDR2 (Homo sapiens (Human), UniProt Q16832); assay: as above; conditions: read-out: Activity of the protein kinase when treated with compound I-1 (% control)
# Experimental: as §1, §2, §3, §4, §5, §6, §7, §8, §9, §10, §11, §12, §13
# EPH-A2 = EPH-A2 (Homo sapiens (Human), UniProt P29317); assay: as above; conditions: read-out: Activity of the protein kinase when treated with compound I-1 (% control)
# Experimental: as §1, §2, §3, §4, §5, §6, §7, §8, §9, §10, §11, §12, §13
# EPH-B1 = EPH-B1 (Homo sapiens (Human), UniProt P54762); assay: as above; conditions: read-out: Activity of the protein kinase when treated with compound I-1 (% control)
# Experimental: as §1, §2, §3, §4, §5, §6, §7, §8, §9, §10, §11, §12, §13
# FGF-R1 = FGF-R1 (Homo sapiens (Human), UniProt P11362); assay: as above; conditions: read-out: Activity of the protein kinase when treated with compound I-1 (% control)
# Experimental: as §1, §2, §3, §4, §5, §6, §7, §8, §9, §10, §11, §12, §13
# HER4 = HER4 (Homo sapiens (Human), UniProt Q15303); assay: as above; conditions: read-out: Activity of the protein kinase when treated with compound I-1 (% control)
# Experimental: as §1, §2, §3, §4, §5, §6, §7, §8, §9, §10, §11, §12, §13
# Lck = Lck (Homo sapiens (Human), UniProt P06239); assay: as above; conditions: read-out: Activity of the protein kinase when treated with compound I-1 (% control)
# Experimental: as §1, §2, §3, §4, §5, §6, §7, §8, §9, §10, §11, §12, §13
# Src = Src (Homo sapiens (Human), UniProt P12931); assay: as above; conditions: read-out: Activity of the protein kinase when treated with compound I-1 (% control)
# Chain of Src (P12931 whole entry): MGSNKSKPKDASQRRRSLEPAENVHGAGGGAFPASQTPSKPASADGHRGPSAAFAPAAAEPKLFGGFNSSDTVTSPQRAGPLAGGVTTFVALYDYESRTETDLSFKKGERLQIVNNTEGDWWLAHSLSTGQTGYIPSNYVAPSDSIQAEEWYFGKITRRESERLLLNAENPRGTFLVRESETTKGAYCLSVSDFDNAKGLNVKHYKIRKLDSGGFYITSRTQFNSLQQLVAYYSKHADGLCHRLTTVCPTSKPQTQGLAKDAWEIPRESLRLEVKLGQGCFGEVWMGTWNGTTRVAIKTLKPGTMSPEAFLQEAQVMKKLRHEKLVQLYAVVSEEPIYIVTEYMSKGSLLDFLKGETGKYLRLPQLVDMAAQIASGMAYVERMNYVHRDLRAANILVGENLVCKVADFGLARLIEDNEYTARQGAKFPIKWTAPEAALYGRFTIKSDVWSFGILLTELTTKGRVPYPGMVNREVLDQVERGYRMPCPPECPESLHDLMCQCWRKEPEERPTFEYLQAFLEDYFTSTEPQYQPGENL
# Experimental: as §1, §2, §3, §4, §5, §6, §7, §8, §9, §10, §11, §12, §13
# TIE2 = TIE2 (Homo sapiens (Human), UniProt Q02763); assay: as above; conditions: read-out: Activity of the protein kinase when treated with compound I-1 (% control)
# Chain of TIE2 (Q02763 23-1124): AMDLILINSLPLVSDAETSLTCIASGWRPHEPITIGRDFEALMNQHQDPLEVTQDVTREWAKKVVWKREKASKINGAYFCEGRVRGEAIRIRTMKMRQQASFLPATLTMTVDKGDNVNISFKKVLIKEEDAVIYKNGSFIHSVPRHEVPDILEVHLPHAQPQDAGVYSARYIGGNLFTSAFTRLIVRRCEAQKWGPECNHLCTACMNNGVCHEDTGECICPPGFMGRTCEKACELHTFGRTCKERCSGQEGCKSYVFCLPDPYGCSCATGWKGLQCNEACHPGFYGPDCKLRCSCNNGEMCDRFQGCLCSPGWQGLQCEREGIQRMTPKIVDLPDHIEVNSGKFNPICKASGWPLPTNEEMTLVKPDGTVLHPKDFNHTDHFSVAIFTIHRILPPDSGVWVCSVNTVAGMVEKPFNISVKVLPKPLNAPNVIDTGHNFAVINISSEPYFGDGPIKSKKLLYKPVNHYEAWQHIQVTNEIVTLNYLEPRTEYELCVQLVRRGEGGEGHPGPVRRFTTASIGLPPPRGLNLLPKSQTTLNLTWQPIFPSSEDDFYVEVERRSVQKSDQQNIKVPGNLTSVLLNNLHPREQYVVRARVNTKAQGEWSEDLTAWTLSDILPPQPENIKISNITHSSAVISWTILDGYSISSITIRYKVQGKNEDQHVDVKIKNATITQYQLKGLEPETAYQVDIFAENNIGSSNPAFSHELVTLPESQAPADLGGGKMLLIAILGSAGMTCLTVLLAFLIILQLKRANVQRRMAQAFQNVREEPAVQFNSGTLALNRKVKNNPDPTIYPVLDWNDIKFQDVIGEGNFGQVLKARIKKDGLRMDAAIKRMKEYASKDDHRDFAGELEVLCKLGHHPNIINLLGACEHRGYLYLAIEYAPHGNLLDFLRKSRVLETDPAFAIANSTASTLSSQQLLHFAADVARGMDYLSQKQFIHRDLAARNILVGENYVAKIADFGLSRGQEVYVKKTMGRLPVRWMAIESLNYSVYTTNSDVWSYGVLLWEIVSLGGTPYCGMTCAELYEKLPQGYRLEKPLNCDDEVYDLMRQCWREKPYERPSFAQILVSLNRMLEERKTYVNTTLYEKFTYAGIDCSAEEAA
# Experimental: as §1, §2, §3, §4, §5, §6, §7, §8, §9, §10, §11, §12, §13
# VEG-FR = assay: as above
# Experimental: as §1, §2, §3, §4, §5, §6, §7, §8, §9, §10, §11, §12, §13
# YES1 = YES1 (Homo sapiens (Human), UniProt P07947); assay: as above; conditions: read-out: Activity of the protein kinase when treated with compound I-1 (% control)
# Chain of YES1 (P07947 whole entry): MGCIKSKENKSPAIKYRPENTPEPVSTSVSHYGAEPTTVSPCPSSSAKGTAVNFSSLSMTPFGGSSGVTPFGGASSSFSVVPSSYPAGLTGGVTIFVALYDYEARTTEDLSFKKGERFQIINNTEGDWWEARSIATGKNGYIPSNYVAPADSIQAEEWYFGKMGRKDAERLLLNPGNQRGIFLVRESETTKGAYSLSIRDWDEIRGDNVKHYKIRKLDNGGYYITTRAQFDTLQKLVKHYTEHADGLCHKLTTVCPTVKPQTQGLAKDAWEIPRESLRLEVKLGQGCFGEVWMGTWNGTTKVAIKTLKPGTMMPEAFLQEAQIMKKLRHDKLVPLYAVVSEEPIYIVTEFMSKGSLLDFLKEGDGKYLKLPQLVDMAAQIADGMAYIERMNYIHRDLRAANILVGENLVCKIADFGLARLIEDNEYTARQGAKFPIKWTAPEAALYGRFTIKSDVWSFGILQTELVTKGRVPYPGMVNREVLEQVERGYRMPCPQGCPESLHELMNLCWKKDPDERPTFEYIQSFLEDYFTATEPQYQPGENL
# Experimental: as §1, §2, §3, §4, §5, §6, §7, §8, §9, §10, §11, §12, §13
# p38a MAPK = p38a MAPK (Homo sapiens (Human), UniProt Q16539); assay: as above; conditions: read-out: Activity of the protein kinase when treated with compound I-1 (% control)
# Experimental: as §1, §2, §3, §4, §5, §6, §7, §8, §9, §10, §11, §12, §13
# BTK [2] = target: T1, BTK; assay: Protein kinase IC50 determination (method developed by Invitrogen Technology); conditions: concentration of ATP: Km for ATP
# Experimental: (§14) In some experiments, inhibitory activities of the compounds described herein against select protein kinases were determined as IC50 values (e.g., IC50 values in Table 3) using methods known in the art (e.g., the method developed by Invitrogen Technology).
# HCK = HCK (Homo sapiens (Human), UniProt P08631); assay: as above; conditions: concentration of ATP: Km for ATP
# Chain of HCK (P08631 whole entry): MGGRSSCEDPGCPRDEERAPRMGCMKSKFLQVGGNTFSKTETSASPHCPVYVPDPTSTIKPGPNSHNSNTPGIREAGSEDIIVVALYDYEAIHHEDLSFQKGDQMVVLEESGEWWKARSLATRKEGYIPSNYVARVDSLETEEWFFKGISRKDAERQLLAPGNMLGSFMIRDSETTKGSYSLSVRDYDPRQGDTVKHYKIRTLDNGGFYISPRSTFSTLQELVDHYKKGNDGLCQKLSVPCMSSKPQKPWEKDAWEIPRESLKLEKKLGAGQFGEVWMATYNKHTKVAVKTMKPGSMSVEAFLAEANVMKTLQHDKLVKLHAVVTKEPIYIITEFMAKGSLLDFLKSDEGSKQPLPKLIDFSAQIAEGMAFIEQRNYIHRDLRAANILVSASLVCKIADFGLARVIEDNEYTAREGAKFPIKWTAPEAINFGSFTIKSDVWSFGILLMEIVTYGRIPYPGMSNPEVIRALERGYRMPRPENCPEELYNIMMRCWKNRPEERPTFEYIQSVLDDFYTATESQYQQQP
# Experimental: as §14
# [3] = 0.1 μM of compound I-1, DMSO control = 100%
# [4] = 1 μM of compound I-1, DMSO control = 100%
# Chain of ABL (P00519 whole entry): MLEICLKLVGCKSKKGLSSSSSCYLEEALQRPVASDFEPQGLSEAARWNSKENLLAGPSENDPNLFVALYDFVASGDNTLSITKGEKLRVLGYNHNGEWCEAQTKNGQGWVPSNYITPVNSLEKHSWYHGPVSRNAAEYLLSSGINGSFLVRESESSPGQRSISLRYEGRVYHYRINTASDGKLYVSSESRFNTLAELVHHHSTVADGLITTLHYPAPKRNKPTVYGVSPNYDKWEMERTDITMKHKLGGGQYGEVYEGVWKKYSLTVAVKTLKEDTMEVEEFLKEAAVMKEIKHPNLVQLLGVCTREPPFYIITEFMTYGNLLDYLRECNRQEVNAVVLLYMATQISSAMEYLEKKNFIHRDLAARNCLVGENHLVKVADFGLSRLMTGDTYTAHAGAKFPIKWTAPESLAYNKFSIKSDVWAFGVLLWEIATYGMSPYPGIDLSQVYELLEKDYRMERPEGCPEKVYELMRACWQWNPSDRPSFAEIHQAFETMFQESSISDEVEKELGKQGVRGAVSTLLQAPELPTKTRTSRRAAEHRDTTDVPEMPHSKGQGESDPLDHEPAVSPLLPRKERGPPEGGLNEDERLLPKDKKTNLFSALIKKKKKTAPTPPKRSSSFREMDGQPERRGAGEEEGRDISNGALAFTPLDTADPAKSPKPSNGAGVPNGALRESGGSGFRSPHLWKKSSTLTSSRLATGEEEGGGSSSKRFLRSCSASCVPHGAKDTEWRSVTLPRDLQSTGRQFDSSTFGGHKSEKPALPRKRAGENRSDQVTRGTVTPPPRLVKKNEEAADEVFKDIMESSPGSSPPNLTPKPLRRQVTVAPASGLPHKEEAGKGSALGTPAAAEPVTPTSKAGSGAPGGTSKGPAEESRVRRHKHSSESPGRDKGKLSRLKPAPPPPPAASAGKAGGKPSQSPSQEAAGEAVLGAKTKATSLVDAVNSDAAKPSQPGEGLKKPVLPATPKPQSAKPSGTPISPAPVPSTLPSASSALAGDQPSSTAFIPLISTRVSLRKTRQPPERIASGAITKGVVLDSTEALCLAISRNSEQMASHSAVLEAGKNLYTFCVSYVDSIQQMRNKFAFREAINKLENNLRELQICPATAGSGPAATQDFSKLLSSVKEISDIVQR
compound,measurement,setting,value
"CCN1CCN(c2ccc(Nc3cc(-n4ccnc4Nc4c(C)cccc4C)ncn3)cc2)CC1 [Compound I-1, 6-(2-((2,6-Dimethylphenyl)amino)-1H-imidazol-1-yl)-N-(4-(4-ethylpiperazin-1-yl)phenyl)pyrimidin-4-amine]",remaining activity at 0.1 µM,ABL; [3],84%
same,remaining activity at 1 µM,ABL; [4],48%
same,remaining activity at 0.1 µM,BRK; [3],74%
same,remaining activity at 1 µM,BRK; [4],16%
same,remaining activity at 0.1 µM,BTK [1]; [3],85%
same,remaining activity at 1 µM,BTK [1]; [4],30%
same,remaining activity at 0.1 µM,CSK; [3],94%
same,remaining activity at 1 µM,CSK; [4],67%
same,remaining activity at 0.1 µM,DDR2; [3],46%
same,remaining activity at 1 µM,DDR2; [4],12%
same,remaining activity at 0.1 µM,EPH-A2; [3],99%
same,remaining activity at 1 µM,EPH-A2; [4],59%
same,remaining activity at 0.1 µM,EPH-B1; [3],86%
same,remaining activity at 1 µM,EPH-B1; [4],16%
same,remaining activity at 0.1 µM,FGF-R1; [3],67%
same,remaining activity at 1 µM,FGF-R1; [4],30%
same,remaining activity at 0.1 µM,HER4; [3],97%
same,remaining activity at 1 µM,HER4; [4],76%
same,remaining activity at 0.1 µM,Lck; [3],24%
same,remaining activity at 1 µM,Lck; [4],13%
same,remaining activity at 0.1 µM,Src; [3],43%
same,remaining activity at 1 µM,Src; [4],13%
same,remaining activity at 0.1 µM,TIE2; [3],82%
same,remaining activity at 1 µM,TIE2; [4],85%
same,Activity of the protein kinase when treated with compound I-1 (% control),VEG-FR; [3],81 % control
same,Activity of the protein kinase when treated with compound I-1 (% control),VEG-FR; [4],31 % control
same,remaining activity at 0.1 µM,YES1; [3],41%
same,remaining activity at 1 µM,YES1; [4],8%
same,remaining activity at 0.1 µM,p38a MAPK; [3],87%
same,remaining activity at 1 µM,p38a MAPK; [4],28%
same,IC50,BTK [2],0.338 µM
same,IC50,HCK,0.111 µM
COCCOc1ccc(Nc2cc(-n3ccnc3Nc3c(C)cccc3C)ncn2)cc1 [Compound I-3],IC50,BTK [2],9.98 µM
same,IC50,HCK,2.42 µM
COCCOc1ccc(Nc2cc(-n3ccnc3Nc3c(C)cccc3Cl)ncn2)cc1 [Compound I-2],IC50,BTK [2],1.86 µM
same,IC50,HCK,0.307 µM
Cc1cccc(Cl)c1Nc1nccn1-c1cc(Nc2cnn(C)c2)ncn1 [Compound I-4],IC50,BTK [2],> 10 µM
same,IC50,HCK,3 µM
